Assay results as given in article PMC2694832, “Pharmacokinetics, tissue distribution and mass balance of radiolabeled dihydroartemisinin in male rats” (Malaria Journal, 2009).

Experiment: Tissue distribution of [^14C] DHA
Assay type: in vivo, rats
Conditions: for Distribution of radioactivity / % of total AUC / Half-lives of radioactivity / Tissue AUC of radioactivity / % total recovery: male rats i.v. 3 mg/20 μCi/kg; for % total recovery: all measured tissues
Description: Rats treated with a single [^14C] DHA dose of 3 mg/20 μCi/kg intravenously (5 rats per group) were anesthaetized by isofluorane and euthanized via cardiac puncture at 1, 6, 24, 48, 72, 96, and 192 hours, post-dosing. Blood, liver, brain, eyes, adrenals, muscle, lungs, heart, liver, kidneys, spleen, stomach, small intestine, large intestine, perirenal fat and bone marrow samples were removed from each animal by gross dissection. The gastrointestinal tract (GI) was separated into the stomach (oesophagus and stomach), small intestine, and large intestine. Contents were procured from each GI segment. After flushing with saline, these and other tissues were stored. Tissues were rinsed gently, but thoroughly with water to remove remaining traces of blood before storage. Dissecting instruments were also washed between tissue procurements to avoid cross-contamination.
For most of the tissues 20% (w/w) aqueous homogenates of the tissue were prepared. Aqueous homogenates of the faecal and GI content samples were also prepared. Metabolism cages were washed with a solution of 2% Count-off® and the volume was measured. Radioactivity in the plasma samples and in aliquots (approx. 0.02–1.0 ml) of urine and cage washings was determined. The blood cells (primarily erythrocytes), perirenal fat (approx. 0.2 g), bone marrow samples (approx. 0.1 ml), and approximately 300-μl aliquots of the homogenates of faeces, liver, kidneys, heart, brain, stomach and carcass were solubilized with SolvableTM tissue solubilizer (Perkin-Elmer Life and Analytical Sciences, Boston, MA). The homogenates of faeces, stomach content, and intestinal contents were extracted with 50% methanol for 24 hours. Aliquots of blood and pooled urine samples from selected intervals were also analysed for DHA content directly.
Total radioactivity in the collected tissue samples were quantified in duplicate. Weighed tissue aliquots (~0.2 g) were digested overnight in 2 ml of Solvable® tissue solubilizer (Perkin-Elmer Life and Analytical Sciences, Boston, MA) at 50°C. Coloured samples were decolourized by adding a maximum of 0.2 ml of 30% H2O2 for 30–60 minutes. Scintillation cocktail (Hyonic Fluor; Perkin-Elmer Boston. Massachusetts, USA) was then added and radioactivity determined in a Perkin-Elmer Tri-Carb 3100 TR scintillation spectrophotometer (Packard Instrument Co., Downers Grove, Illinois, USA). Faeces and intestinal contents were thoroughly homogenized before taking aliquots. Plasma was also analysed using the HPLC-ECD system to measure the concentration of unchanged DHA, as described by Li et al.

Distribution of radioactivity (Lungs, 24 hr): 398.52 ng equivalents/tissue gram | Distribution of radioactivity (Lungs, 48 hr): 305.34 ng equivalents/tissue gram | Distribution of radioactivity (Lungs, 72 hr): 303.10 ng equivalents/tissue gram | Distribution of radioactivity (Lungs, 96 hr): 236.70 ng equivalents/tissue gram | Distribution of radioactivity (Lungs, 192 hr): 221.64 ng equivalents/tissue gram | % of total AUC (Lungs): 2.03% | Half-lives of radioactivity (Lungs): 86.19 ± 18.00 h | Tissue AUC of radioactivity (Lungs): 85,916 ng·hr/g | Tissue AUC of radioactivity (Lungs, listed as [^14C]-dihydroartemisinin): 85916 ± 12999 ng·h/g | % of total AUC (Muscle): 0.86% | Half-lives of radioactivity (Muscle): 64.45 ± 13.54 h | Tissue AUC of radioactivity (Muscle): 36371 ± 6994 ng·h/g | Distribution of radioactivity (Plasma, 1 hr): 591.34 ng equivalents/tissue gram | Distribution of radioactivity (Plasma, 6 hr): 540.83 ng equivalents/tissue gram | Distribution of radioactivity (Plasma, 24 hr): 216.03 ng equivalents/tissue gram | Distribution of radioactivity (Plasma, 48 hr): 93.02 ng equivalents/tissue gram | % of total AUC (Plasma): 0.49% | Tissue AUC of radioactivity (Plasma): 20750 ± 1031 ng·h/g | Half-lives of radioactivity (Plasma, listed as [^14C]-dihydroartemisinin): 75.57 ± 7.34 h | Distribution of radioactivity (SI Content, 1 hr): 46426.85 ng equivalents/tissue gram | Distribution of radioactivity (SI Content, 6 hr): 11387.30 ng equivalents/tissue gram | Distribution of radioactivity (SI Content, 24 hr): 2283.61 ng equivalents/tissue gram | Distribution of radioactivity (SI Content, 48 hr): 633.61 ng equivalents/tissue gram | Distribution of radioactivity (SI Content, 72 hr): 575.05 ng equivalents/tissue gram | Distribution of radioactivity (SI Content, 96 hr): 176.57 ng equivalents/tissue gram | Distribution of radioactivity (SI Content, 192 hr): 250.03 ng equivalents/tissue gram | % of total AUC (SI Content): 35.25% | Half-lives of radioactivity (SI Content): 28.73 ± 9.05 h | Tissue AUC of radioactivity (SI Content): 1492988 ± 63053 ng·h/g | Distribution of radioactivity (Small intestine (SI), 1 hr): 8155.95 ng equivalents/tissue gram | Distribution of radioactivity (Small intestine (SI), 6 hr): 3014.58 ng equivalents/tissue gram | Distribution of radioactivity (Small intestine (SI), 24 hr): 821.84 ng equivalents/tissue gram | Distribution of radioactivity (Small intestine (SI), 48 hr): 335.42 ng equivalents/tissue gram | Distribution of radioactivity (Small intestine (SI), 72 hr): 389.72 ng equivalents/tissue gram | Distribution of radioactivity (Small intestine (SI), 96 hr): 235.61 ng equivalents/tissue gram | Distribution of radioactivity (Small intestine (SI), 192 hr): 304.12 ng equivalents/tissue gram | % of total AUC (Small intestine (SI)): 3.10% | Half-lives of radioactivity (Small intestine (SI)): 49.99 ± 34.89 h | Tissue AUC of radioactivity (Small intestine (SI)): 131,264 ng·hr/g | Tissue AUC of radioactivity (Small intestine (SI), listed as [^14C]-dihydroartemisinin): 131264 ± 24631 ng·h/g | Distribution of radioactivity (Spleen, 1 hr): 4,387 ng equivalents/tissue gram | Distribution of radioactivity (Spleen, 1 hr, listed as [^14C]-dihydroartemisinin): 4387.40 ng equivalents/tissue gram | Distribution of radioactivity (Spleen, 6 hr): 3,685 ng equivalents/tissue gram | Distribution of radioactivity (Spleen, 6 hr, listed as [^14C]-dihydroartemisinin): 3684.97 ng equivalents/tissue gram | Distribution of radioactivity (Spleen, 24 hr): 3,061 ng equivalents/tissue gram | Distribution of radioactivity (Spleen, 24 hr, listed as [^14C]-dihydroartemisinin): 3061.40 ng equivalents/tissue gram | Distribution of radioactivity (Spleen, 48 hr): 4,216 ng equivalents/tissue gram | Distribution of radioactivity (Spleen, 48 hr, listed as [^14C]-dihydroartemisinin): 4216.03 ng equivalents/tissue gram | Distribution of radioactivity (Spleen, 72 hr): 4446.65 ng equivalents/tissue gram | Distribution of radioactivity (Spleen, 96 hr): 4464.57 ng equivalents/tissue gram | Distribution of radioactivity (Spleen, 192 hr): 5,170 ng equivalents/tissue gram | Distribution of radioactivity (Spleen, 192 hr, listed as [^14C]-dihydroartemisinin): 5170.22 ng equivalents/tissue gram | % of total AUC (Spleen): 14.58% | Half-lives of radioactivity (Spleen): 114.02 ± 57.67 h | Tissue AUC of radioactivity (Spleen): 617,495 ng·hr/g | Tissue AUC of radioactivity (Spleen, listed as [^14C]-dihydroartemisinin): 617495 ± 410768 ng·h/g | Distribution of radioactivity (Stomach Content, 1 hr): 36.03 ng equivalents/tissue gram | Distribution of radioactivity (Stomach Content, 6 hr): 6289.79 ng equivalents/tissue gram | Distribution of radioactivity (Stomach Content, 24 hr): 22.45 ng equivalents/tissue gram | Distribution of radioactivity (Stomach Content, 48 hr): 98.12 ng equivalents/tissue gram | Distribution of radioactivity (Stomach Content, 72 hr): 18.69 ng equivalents/tissue gram | Distribution of radioactivity (Stomach Content, 96 hr): 11.76 ng equivalents/tissue gram | Distribution of radioactivity (Stomach Content, 192 hr): 343.37 ng equivalents/tissue gram | % of total AUC (Stomach Content): 0.53% | Half-lives of radioactivity (Stomach Content): 16.75 ± 16.30 h | Tissue AUC of radioactivity (Stomach Content): 22362 ± 98089 ng·h/g | Distribution of radioactivity (Stomach, 1 hr): 1366.22 ng equivalents/tissue gram | Distribution of radioactivity (Stomach, 6 hr): 932.33 ng equivalents/tissue gram | Distribution of radioactivity (Stomach, 24 hr): 464.21 ng equivalents/tissue gram | Distribution of radioactivity (Stomach, 48 hr): 342.30 ng equivalents/tissue gram | Distribution of radioactivity (Stomach, 72 hr): 337.48 ng equivalents/tissue gram | Distribution of radioactivity (Stomach, 96 hr): 229.69 ng equivalents/tissue gram | Distribution of radioactivity (Stomach, 192 hr): 218.27 ng equivalents/tissue gram | % of total AUC (Stomach): 1.94% | Half-lives of radioactivity (Stomach): 72.58 ± 12.98 h | Tissue AUC of radioactivity (Stomach): 82125 ± 13428 ng·h/g | Distribution of radioactivity (Testis, 1 hr): 624.14 ng equivalents/tissue gram | Distribution of radioactivity (Testis, 6 hr): 513.53 ng equivalents/tissue gram | Distribution of radioactivity (Testis, 24 hr): 176.47 ng equivalents/tissue gram | Distribution of radioactivity (Testis, 48 hr): 155.78 ng equivalents/tissue gram | Distribution of radioactivity (Testis, 72 hr): 151.29 ng equivalents/tissue gram | Distribution of radioactivity (Testis, 96 hr): 123.54 ng equivalents/tissue gram | Distribution of radioactivity (Testis, 192 hr): 141.04 ng equivalents/tissue gram | Tissue AUC of radioactivity (Testis): 48249 ± 6078 ng·h/g | Half-lives of radioactivity (Testis, listed as [^14C]-dihydroartemisinin): 86.24 ± 40.68 h | Half-lives of radioactivity (Total Amounts line): 69.03 ± 22.13 h | Tissue AUC of radioactivity (Total Amounts line): 4234952.00 ng·h/g | % total recovery (1 hr): 34.57% | % total recovery (6 hr): 34.10% | % total recovery (24 hr): 8.51% | % total recovery (48 hr): 6.50% | % total recovery (72 hr): 6.28% | % total recovery (96 hr): 4.51% | % total recovery (192 hr): ~5.53% | radioactivity in whole blood higher than in plasma (throughout the period measured, rats i.v. 3 mg/20 μCi/kg): 1.8–4.6 fold | total radioactivity found in the content of small intestine (within the first hour after i.v. dosing, rats): 53–86%
Compound: C[C@@H]1CC[C@H]2[C@@H]([14CH3])C(O)O[C@@H]3O[C@@]4(C)CC[C@@H]1[C@]32OO4 (stereo partly drawn) [[^14C] DHA, [16-^14C] DHA]
